Measured values from patent US10844013B2, “Phenyl amino piperidine mTORC inhibitors and uses thereof” (Navitor Pharmaceuticals, Inc., priority 2016, dated 2020).
pIC50: −log10 of the molar value.

Key:
[1] = system: pAKT (p-Akt 1/2/3 (Ser473)) in MCF-7 cells; assay: AlphaLISA Ultra pAKT assay; format: cell-based; conditions: Homo sapiens, MCF7, 2 hours compound incubation
Description: Example 156: AlphaLISA Ultra pAKT Assay
(§1) Assay Protocol: • 1. MCF-7 cells in Corning 3701 plate and incubate for 20-24 hour. 16,000-20,000 cells will be seeded in 36 μL medium per well. • 2. Change the culture medium with fresh medium and incubate for another 2 hours. • 3. Add 12 μL (4×) compounds into the cell plate by HAMILTON. Final DMSO concentration is 0.5%. Incubate for 2 hours. • 4. Aspirate 38 j L by HAMILTON, 10 μL rest per well. • 5. Add 10 μL 2× lysis buffer using HAMILTON; total volume in wells is 20 μL. Allow cells to shake for 30 min. Cover plate by plastic foil and store plate at −80° C. up to analysis. • 6. Thaw cell lysate at RT and transfer 10 ul lysate to assay plate (Optiplate-384). • 7. Add 5 ul acceptor beads into assay plate and incubation for 2 hours • 8. Add 5 ul donor beads and incubation for 2 hours • 9. Count the plate by EnSpire Multimode Plate Reader

[2] = system: pS6K1 (p-p70 S6 Kinase (Thr389)) in MCF-7 cells; assay: AlphaLISA Ultra pS6K1 assay; format: cell-based; conditions: Homo sapiens, MCF7, 2 h, 2 hours compound incubation
Description: Example 155: AlphaLISA Ultra pS6K1 assay
as §1, with “1. Seed” for “1.”, “20˜24” for “20-24”, “12,000˜16,000” for “16,000-20,000”, “μL” for “j L”

SMILES | pIC50 [1] | pIC50 [2]
Cc1cc(C(F)(F)F)c(NC2CCN(c3ccccc3C#N)CC2)cc1C(=O)N1CCN(c2cccnc2S(N)(=O)=O)CC1 [I-172, 3-(4-(5-((1-(2-cyanophenyl)piperidin-4-yl)amino)-2-methyl-4-(trifluoromethyl)benzoyl)piperazin-1-yl)pyridine-2-sulfonamide] | < 5.00 | 5.30 to 5.52
Cc1cc(C)c(C(=O)N2CCN(C(C)C)[C@H](CO)C2)cc1NC1CCN(c2ccccc2C#N)CC1 [I-95, (S)-2-(4-(5-(3-(Hydroxymethyl)-4-isopropylpiperazine-1-carbonyl)-2,4-dimethylphenylamino)piperidin-1-yl)benzonitrile] | < 5.00 | < 5.00
Cc1cc(C)c(C(=O)N2CCN(c3cc(F)c(F)cc3S(N)(=O)=O)CC2)cc1NC1CCN(c2ccccc2C#N)CC1 [I-104, 2-(4-(5-(1-(2-Cyanophenyl)piperidin-4-ylamino)-2,4-dimethylbenzoyl)piperazin-1-yl)-4,5-difluorobenzenesulfonamide] | < 5.00 | 6.00 to 8.00
Cc1cc(C)c(C(=O)N2CCN(CC(F)(F)F)[C@@H](CO)C2)cc1NC1CCN(c2ccccc2C#N)CC1 [I-96, (R)-2-(4-(5-(3-(Hydroxymethyl)-4-(2,2,2-trifluoroethyl)piperazine-1-carbonyl)-2,4-dimethylphenylamino)piperidin-1-yl)benzonitrile] | < 5.00 | 5.30 to 5.52
Cc1cc(C)c(C(=O)N2CCN(c3ccccc3)C(C(N)=O)C2)cc1NC1CCN(c2ccccc2C#N)CC1 (centres unmarked) [I-31, 4-(5-{[1-(2-cyanophenyl)piperidin-4-yl]amino}-2,4-dimethylbenzoyl)-1-phenylpiperazine-2-carboxamide] | < 5.00 | 6.00 to 8.00
Cc1cc(C)c(C(=O)N2CCN(c3ccccc3S(N)(=O)=O)CC2)cc1N[C@@H]1CCN(c2ccccc2C#N)C[C@H]1C [I-170, 2-(4-(5-(((3R,4R)-1-(2-cyanophenyl)-3-methylpiperidin-4-yl)amino)-2,4-dimethylbenzoyl)piperazin-1-yl)benzenesulfonamide] | < 5.00 | 6.00 to 8.00
Cc1cc(C)c(C(=O)N2CCN(c3ncccc3S(N)(=O)=O)[C@H](C)C2)cc1NC1CCN(c2ccccc2C#N)CC1 [I-122, (R)-2-(4-(5-(1-(2-Cyanophenyl)piperidin-4-ylamino)-2,4-dimethylbenzoyl)-2-methylpiperazin-1-yl)pyridine-3-sulfonamide] | < 5.00 | 6.00 to 8.00
Cc1cc(C)c(C(=O)N2CCN(c3ccccc3)[C@@H](C(C)(C)O)C2)cc1NC1CCN(c2ccccc2C#N)CC1 [I-21] | < 5.00 | 5.30 to 5.52
Cc1cc(C)c(C(=O)N2CCN(c3ccccc3)C(C(=O)O)C2)cc1NC1CCN(c2ccccc2C#N)CC1 (centres unmarked) [I-39, 4-(5-{[1-(2-cyanophenyl)piperidin-4-yl]amino}-2,4-dimethylbenzoyl)-1-phenylpiperazine-2-carboxylic Acid] | < 5.00 | < 5.00
Cc1nc(C)c(C(=O)N2CCN(c3ccccc3C#N)CC2)cc1NC1CCN(c2ccccc2C#N)CC1 [I-13, 2-(4-(5-(4-(2-Cyanophenyl)piperazine-1-carbonyl)-2,6-dimethylpyridin-3-ylamino)piperidin-1-yl)benzonitrile] | < 5.00 | 5.30 to 5.52
Cc1cc(C)c(C(=O)N2CCN(c3ccccc3)C(CO)C2)cc1NC1CCN(c2ccccc2)C1 (centres unmarked) [I-73, (4-{2,4-Dimethyl-5-[(1-phenylpyrrolidin-3-yl)amino]benzoyl}-1-phenylpiperazin-2-yl)methanol] | < 5.00 | 5.30 to 5.52
Cc1nc(C)c(C(=O)N2CCN(c3ccccc3)[C@H](CO)C2)c(C)c1NC1CCN(c2c(F)cccc2C#N)CC1 [I-153, 3-fluoro-2-[4-({5-[(3S)-3-(hydroxy-methyl)-4-phenyl-piperazine-1-carbonyl]-2,4,6-trimethyl-pyridin-3-yl}amino)piperidin-1-yl] benzonitrile] | < 5.00 | 6.00 to 8.00
Cc1cc(C)c(C(=O)N2CCN(c3ccccc3C(N)=O)CC2)cc1NC1CCN(c2ccccc2C#N)CC1 [I-29] | < 5.00 | 6.00 to 8.00
Cc1cc(C)c(C(=O)N2CCN(c3cccc(F)c3S(N)(=O)=O)CC2)cc1NC1CCN(c2c(F)cc(F)cc2C#N)CC1 [I-187, 2-(4-(5-(1-(2-cyano-4,6-difluorophenyl)piperidin-4-ylamino)-2,4-dimethylbenzoyl)piperazin-1-yl)-6-fluorobenzenesulfonamide] | < 5.00 | < 5.00
Cc1cccc(N2CCN(C(=O)c3cc(NC4CCN(c5ccccc5Cl)CC4)c(C)cc3C)CC2)n1 [I-35, (5-(1-(2-chlorophenyl)piperidin-4-ylamino)-2,4-dimethylphenyl) (4-(6-methylpyridin-2-yl)piperazin-1-yl) methanone] | < 5.00 | 5.30 to 5.52
Cc1cccc(N2CCC(Nc3cc(C(=O)N4CCN(c5ccccc5S(N)(=O)=O)CC4)c(C)cc3C)CC2)c1 [I-129, 2-(4-(2,4-Dimethyl-5-(1-m-tolylpiperidin-4-ylamino)benzoyl)piperazin-1-yl)benzenesulfonamide] | < 5.00 | 5.52 to 6.00
Cc1cc(C)c(C(=O)N2CCN(c3cccc(F)c3[S@](C)(=N)=O)CC2)cc1NC1CCN(c2ccccc2C#N)CC1 (single isomer, unassigned) [I-89] | < 5.00 | 6.00 to 8.00
N#Cc1ccccc1N1CCC(Nc2cc(C(=O)N3CCN(c4ccccc4S(N)(=O)=O)CC3)c(Cl)cc2Cl)CC1 [I-125, 2-(4-(2,4-dichloro-5-(1-(2-cyanophenyl)piperidin-4-ylamino)benzoyl)piperazin-1-yl)benzenesulfonamide] | < 5.00 | < 5.00
Cc1cc(C)c(C(=O)N2CCN(c3ccccc3S(C)(=N)=O)CC2)nc1NC1CCN(c2ccccc2C#N)CC1 (single isomer, unassigned) [I-126, 2-(4-(3,5-Dimethyl-6-(4-(2-(S-methylsulfonimidoyl)phenyl)piperazine-1-carbonyl)pyridin-2-ylamino)piperidin-1-yl)benzonitrile] | < 5.00 | 6.00 to 8.00
Cc1cc(C)c(C(=O)N2CCN(c3ccccc3)[C@@H](CO)C2)cc1NC1CCN(c2ccccc2)CC1 [I-54] | < 5.00 | 5.52 to 6.00
Cc1cc(C)c(C(=O)N2CCN(c3cccnn3)[C@H](CO)C2)c(C)c1NC1CCN(c2ccccc2C#N)CC1 [I-140, 2-[4-({3-[(3S)-3-(hydroxy-methyl)-4-(pyridazin-3-yl)piperazine-1-carbonyl]-2,4,6-trimethyl-phenyl}amino)piperidin-1-yl] benzonitrile] | < 5.00 | 6.00 to 8.00
Cc1cc(C)c(C(=O)N2CCN(c3ccc(F)cn3)[C@H](CO)C2)c(C)c1NC1CCN(c2ccc(F)cn2)CC1 [I-146, [(3S)-4-(5-Fluoro-2-pyridyl)-3-(hydroxymethyl)piperazin-1-yl]-[3-[[1-(5-fluoro-2-pyridyl)-4-piperidyl]amino]-2,4,6-trimethyl-phenyl]methanone] | 6.00 to 8.00 | 6.00 to 8.00
Cc1cc(C)c(C(=O)N2CCN(c3ccccc3)[C@H](CO)C2)c(C)c1NC1CCN(c2ccc(F)cn2)CC1 [I-145, [(2S)-4-(3-{[1-(5-fluoropyridin-2-yl)piperidin-4-yl]amino}-2,4,6-trimethyl-benzoyl)-1-phenyl-piperazin-2-yl]MeOH] | < 5.00 | 6.00 to 8.00
Cc1cc(C)c(C(=O)N2CCN(c3ccccn3)CC2)cc1NC1CCN(c2ccccc2C#N)CC1 [I-55] | < 5.00 | 5.52 to 6.00
Cc1cc(C)c(C(=O)N2CCN[C@H](CO)C2)cc1NC1CCN(c2ccccc2C#N)CC1 [I-8, (S)-2-(4-(5-(3-(hydroxymethyl)piperazine-1-carbonyl)-2,4-dimethylphenylamino)piperidin-1-yl)benzonitrile] | < 5.00 | < 5.00
Cc1cc(C)c(C(=O)N2CCN(c3ccccc3C#N)CC2)cc1NC1CCN(c2ccccc2)CC1 [I-56] | < 5.00 | 5.52 to 6.00
Cc1cc(C)c(C(=O)N2CCN(c3ccccc3)C(C(N)=O)C2)c(C)c1NC1CCN(c2ccc(F)cc2C#N)CC1 (centres unmarked) [I-142, 4-(3-{[1-(2-cyano-4-fluorophenyl)piperidin-4-yl]amino}-2,4,6-trimethyl-benzoyl)-1-phenyl-piperazine-2-carboxamide] | < 5.00 | 6.00 to 8.00
Cc1cc(C)c(C(=O)N2CC(=O)N(c3ccc(F)c(F)c3)[C@H](CO)C2)c(C)c1NC1CCN(c2ccccc2C#N)CC1 [I-136, 2-[4-({3-[(3S)-4-(3,4-difluoro-phenyl)-3-(hydroxy-methyl)-5-oxopiperazine-1-carbonyl]-2,4,6-trimethyl-phenyl}amino)piperidin-1-yl]benzonitrile] | < 5.00 | 6.00 to 8.00
